In PMC5562778 (Archives of Toxicology, 2017):

What was measured:
[1] = molecular target: T1, CYP 1A2 (Homo sapiens, UniProt P05177); conditions: cited from earlier work
T1 sequence (P05177 1-516): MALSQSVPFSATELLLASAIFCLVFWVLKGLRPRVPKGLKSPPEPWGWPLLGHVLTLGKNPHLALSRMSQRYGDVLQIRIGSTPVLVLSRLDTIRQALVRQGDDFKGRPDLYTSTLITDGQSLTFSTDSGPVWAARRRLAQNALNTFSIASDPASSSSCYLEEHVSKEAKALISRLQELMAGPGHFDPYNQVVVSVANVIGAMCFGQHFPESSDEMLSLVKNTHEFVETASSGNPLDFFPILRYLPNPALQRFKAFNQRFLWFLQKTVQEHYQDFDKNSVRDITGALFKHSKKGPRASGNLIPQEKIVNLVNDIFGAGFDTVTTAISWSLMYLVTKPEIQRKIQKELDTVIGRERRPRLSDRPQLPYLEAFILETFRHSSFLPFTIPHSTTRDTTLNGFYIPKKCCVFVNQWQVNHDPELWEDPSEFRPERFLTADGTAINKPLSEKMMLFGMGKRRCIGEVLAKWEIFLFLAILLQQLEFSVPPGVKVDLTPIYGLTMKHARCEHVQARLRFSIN

[2] = molecular target: T1, CYP 1A2; conditions: pH 7.4
Experimental: The quality of the Chinese and Caucasian liver microsomes was checked by measuring the activity of CYP1A2 and CYP2A6 by the method of Yang et al. ([2012]). The quality of Chinese and Caucasian liver S9 samples was checked by measuring the SULT activity based on the method provided by Wang et al. ([2006]). The details of the methods for the microsomal and S9 in vitro incubations and UPLC analysis for assessing the metabolic capabilities of CYP and SULT enzymes can be found in the supporting materials 1.
The quality of the Chinese and Caucasian liver microsomes was checked by measuring the activity of CYP 1A2 and CYP 2A6 by the method of Yang et al. (Yang et al. 2012). CYP 1A2 and CYP 2A6 are predominant enzymes for formation of 1'-hydroxyestragole (Jeurissen et al. 2007). The activity of CYP 1A2 was measured with the substrate phenacetin, and the activity of CYP 2A6 was checked using the substrate coumarin. […] The samples were centrifuged for 5 min at 16, 000g to precipitate microsomal proteins and analyzed by UPLC.
Before UPLC analysis, all samples were centrifuged for 5 min at 16, 000g to precipitate microsomal or cytosolic proteins. Supernatant of each sample was analyzed on UPLC using a BEH C18 (1.7 μm 2.1×50 mm) column with a guard column and a diode array detector (Acquity, Waters).

[3] = route not stated; ref Barter et al. [2013]; cited from earlier work
[4] = set-up: method as in Bartoli et al. [1996]; conditions: peak at 0.5–2 h; clearance within 7 h of administration; marker for CYP1A2 activity; ref Bartoli et al. [1996]; cited from earlier work
[5] = PBK prediction; route not stated; ref Barter et al. [2013]; cited from earlier work
[6] = set-up: method as in Van Den Berg et al. [2011]; conditions: lower confidence bound of the Benchmark Dose giving 10% extra cancer incidence; ref Van Den Berg et al. [2011]; cited from earlier work

SMILES	Catalytic efficiency of CYP 1A2, lower for Chinese liver microsomes [1]	Catalytic efficiency for CYP 1A2 ([1]; microsomes)	Catalytic efficiency of CYP 1A2 mediated conversion, lower in Chinese than Caucasian liver microsomes ([2]; microsomes)	Catalytic efficiency (Vmax/Km), CYP 1A2 mediated O-deethylation [2]	Experimentally observed clearance, lower in Chinese individuals than in Caucasian volunteers [3]	Peak plasma concentrations and apparent oral clearance, Chinese versus Caucasian subjects [4]	Predicted clearance, lower in Chinese than in Caucasian subjects [5]	BMDL10 [6]
CCOc1ccc(NC(C)=O)cc1 [phenacetin]	2 fold	0.6-51.4 µl/min/(mg microsomal protein)	3 fold	3.1 µl/min/(mg microsomal protein)	28%	not differ	36%	
C=CCc1ccc(OC)cc1 [Estragole, 1-allyl-4-methoxybenzene]								3.3–6.5 mg/kg bw/day
